Laboratory results: patent publication US20250057866A1, “A SYNERGISTIC PHARMACEUTICAL COMPOSITION AND ITS ANTIVIRAL USE” (priority 2022, published 2025)
Like-named read-outs stand apart in the source and are kept apart here.

Tested on: virus (0.01 MOI) in Vero-E6 cells
Assay: In vitro antiviral activity EC50 assay (CCK8, 48 h, 0.01 MOI virus in Vero-E6 cells)
Type: cell-based
Conditions: combination mol./mol.=1/1, combined total concentration
Method: • 1) Vero-E6 cells were digested and passaged. The cells were adjusted to a density of 1×10^5 cells/mL with DMEM containing 10% FBS, then seeded in a 96-well plate (100 μl/well), and incubated in a 35° C., 6% CO2 incubator for 20 h; • 2) Compound 1 and Compound 2 (mol./mol.=1/1) were diluted with DMEM containing 1% FBS to provide compositions with combined total concentrations (Compound 1+Compound 2) of 200 μM, 60 μM, 20 μM, 6 μM, 2 μM, 0.6 μM, 0.2 μM, 0.06 μM, and 0.02 μM; • 3) The culture medium in each well was removed, and the 96-well plate was marked on its lid, washed three times with 1×PBS, and 100 μL of dilutions of the compositions prepared above was added to each well, followed by 100 μL of a 0.01 multiplicity of infection (MOI) virus solution, so as to obtain final combined total concentrations of the compounds (Compound 1+Compound 2) at 100 μM, 30 μM, 10 μM, 3 μM, 1 μM, 0.3 μM, 0.1 μM, 0.03 μM, 0.01 μM. The 96-well plate, including a cell control group and a virus control group, was then incubated in a 35° C., 6% CO2 incubator; • 4) After 48 h, the cell viability was tested with a CCK8 kit.

## [2H]C1([2H])C[C@@H](C[C@@H](C#N)NC(=O)[C@@H]2[C@@H]3[C@H](CN2C(=O)[C@@H](NC(=O)C(F)(F)F)C(C)(C)C)C3(C)C)C(=O)N1 [Compound 1]
Vero C1008, 48 h
  EC50: 1.72 µM
read-out: EC50
  EC50: 1.56 ± 0.576 µM

## [2H]C(OC(=O)C(C)C)[C@H]1O[C@@H](n2ccc(NO)nc2=O)[C@H](O)[C@@H]1O (stereo partly drawn) [Compound 2, ((2R, 3S, 4R, 5R)-3,4-dihydroxy-5-(4-(hydroxylamino)-2-oxopyrimidin-1 (2H)-yl)tetrahydrofuran-2-yl) deuterated methyl isobutyl ester]
Vero C1008, 48 h
  EC50: 1.56 µM
read-out: EC50
  EC50: 1.72 ± 0.585 µM
